Test results: publication PMC12814185, “Receptor-Mediated Shuttling of a D‑Amino Acid Peptide Achieves High Nanomolar Cytosolic Concentrations” (Journal of the American Chemical Society, 2025)
Read-outs that look alike come from different tables or passages of the source. Where a SMILES comes first, the peptide text is derived from it. Bridges are numbered along the chain shown (N, C = ends). Roman numbers before positions name the chains, in order. Triazole bridges read from a SMILES are 1,4-linked. Where no end group is shown, it is not given here. [ ]: non-standard residue; d: D form. Lys(N3) = [N-]=[N+]=NCCCC[C@H](N)C(=O)O; Cit = NC(=O)NCCC[C@H](N)C(=O)O; d(hCys) = N[C@H](CCS)C(=O)O; PEG3 = NCCOCCOCCOCCC(=O)O; Pra = C#CC[C@H](N)C(=O)O

Key:
CMKLR1 = target: T1, CMKLR1 (Homo sapiens, UniProt Q99788); assay: Ca2+ flux assay in COS-7_CMKLR1-eYFP_Δ6Gαqi4myr cells; type: cell-based; settings: maximum signal over baseline normalized to peptide 1, at least two independent experiments in duplicate
T1 construct: expressed in transfected cells; host or cells: COS-7 (stably transfected, CMKLR1-eYFP + Δ6Gαqi4myr)
T1 sequence (Q99788 1-373): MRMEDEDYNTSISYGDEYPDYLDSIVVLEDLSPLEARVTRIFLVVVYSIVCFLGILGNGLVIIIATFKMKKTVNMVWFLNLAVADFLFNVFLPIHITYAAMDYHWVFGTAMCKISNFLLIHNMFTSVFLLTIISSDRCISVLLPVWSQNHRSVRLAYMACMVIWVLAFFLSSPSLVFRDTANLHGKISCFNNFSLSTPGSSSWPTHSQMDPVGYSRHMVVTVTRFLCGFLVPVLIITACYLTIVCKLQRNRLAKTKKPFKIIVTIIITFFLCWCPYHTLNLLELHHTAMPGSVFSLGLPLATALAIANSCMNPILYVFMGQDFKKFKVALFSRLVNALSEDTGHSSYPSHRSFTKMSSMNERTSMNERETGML
Description: (C) Activity of the cyclic chemerin-9 (cC9) derivatives at CMKLR1 tested in a Ca^2+ flux assay. Data points represent the mean ± SEM of at least two independent experiments performed in duplicate.
Calcium flux assay was performed with cells expressing CMKLR1 and the chimeric G protein Δ6Gαqi4myr.
The stably transfected COS-7_CMKLR1-eYFP_ Δ6Gαqi4myr cells were seeded at 25,000 cells per well into poly-ᴅ-lysine-coated 96-well plates (black µCLEAR, Greiner). The next day, cells were incubated with 2.3 µM Fluo-2-AM (Abcam) and 0.06% (v/v) Pluronic-F127 (Sigma) in assay buffer (2.5 mM probenecid (Sigma), 20 mM 4-(2-hydroxyethyl)-1-piperazineethanesulfonic acid (HEPES, Sigma) in Hanks' Balanced Salt Solution (HBSS, Biowest), pH 7.5) for 1 h. This solution was replaced by assay buffer, and basal Ca2+ signal (λex = 485 nm, λem = 525 nm) was measured for 20 s with a Flexstation 3 plate reader (Molecular Devices). Peptide dilutions were added, and the Ca2+ response was measured for 40 s. The maximum signal over baseline was calculated and normalized to peptide 1 (N3-cC9). Non-linear regression was performed using Prism 10 (GraphPad). Experiments were performed in technical duplicates and at least

[1] = target: T2, recombinant human GST-MDM2 (Homo sapiens, UniProt Q00987); assay: Fluorescence polarization binding of Cy5-labeled peptides to MDM2; settings: 20 nM Cy5-labeled peptide, FP buffer pH 7.4, 30 min room temperature; performed twice in technical triplicates
T2 construct: purchased R&D Systems
Description: (B) Fluorescence polarization measurement of 20 nM Cy5-labeled peptides binding to recombinant human GST-MDM2.
20 nM of Cy5-labeled peptides were added to dilutions of human MDM2 (Recombinant Human GST -
MDM2/HDM2, R&D Systems) in FP buffer (50 mM tris(hydroxymethyl)aminomethane (Tris, Carl Roth),
150 mM sodium chloride (Sigma), 1 mM EDTA (Sigma), 0.01% (v/v) Tween20 (Sigma), pH 7.4) and
incubated for 30 min at room temperature. Fluorescence polarization was then measured in a Tecan
Spark plate reader (λex = 640 nm, λem = 670 nm). Measurements were performed twice in technical
triplicates. Data was then fit with Prism 10 (GraphPad) using non-linear regression with the following
solution to the quadratic binding equation 1 to obtain Kd:
𝐹𝑃 = 𝐹𝑃 + (𝐹𝑃 − 𝐹𝑃 ) ∗ 𝑐 + 𝑐 + 𝐾 − 𝑝𝑒𝑝𝑡𝑖𝑑𝑒 𝑀𝐷𝑀2 𝑑 𝑝𝑒𝑝𝑡𝑖𝑑𝑒 𝑀𝐷𝑀2

[2] = printed as (reference) in the column measured D; calibration standard of the focal volume; source not shown; cited from earlier work
From the text: Descriptive statistics of fluorescence correlation spectroscopy (FCS) data from Figure 3. Measurements were obtained in stably transfected HEK293_CMKLR1-eYFP cells as well as endogenously CMKLR1-expressing HMEC-1 and THP-1 cells. SD – standard deviation, GSD – geometric SD factor, IQR – interquartile range applied mean ± SD geometric median (IQR) cell line N° name concentration [nM] mean *÷ GSD [nM] [nM] [nM] HEK29 ...

HEK293_CMKLR1-eYFP cells = assay: Resazurin based cell viability assay, peptides; settings: 72 h incubation
Description: page 3: […] 15% FCS. Calcium flux assay Calcium flux assay was performed with cells expressing CMKLR1 and the chimeric G protein […]. The stably transfected COS-7_CMKLR1-eYFP_ […] were seeded at 25,000 cells per well into poly-ᴅ-lysine-coated 96-well plates (black μCLEAR, Greiner). The next day, cells were incubated with […] (Sigma), 20 mM 4-(2-hydroxyethyl)-1-piperazineethanesulfonic acid (HEPES, Sigma) in Hanks' Balanced […] This solution was replaced by assay buffer, and basal Ca2+ signal (λex = 485 nm, λem = 525 nm) was measured for 20 s with a Flexstation 3 plate reader (Molecular Devices). Peptide dilutions were added, and the Ca2+ response was measured for 40 s. The maximum signal over baseline was calculated and normalized to peptide 1 (N3-cC9). Non-linear regression was performed using Prism 10 (GraphPad). Experiments were performed in technical duplicates and at least twice. Cell viability assay HEK293 and HEK293_CMKLR1-eYFP cells were seeded at 15,000 cells per well into poly-ᴅ-lysine coated 96-well plates (black μCLEAR, Greiner). […] Cells were then washed and a resazurin-based cell viability assay was performed. […] (1:1) + 15% FBS without phenol red was added to the cells. […] using the fluorescence of resorufin (λex = 550 nm, λem = 595 nm). Data was normalized to cells incubated without peptide (100%) and cells treated with ethanol for 3 min before resazurin addition (0%). Experiments were performed in technical triplicates and at least twice. Fluorescence microscopy Peptide internalization was evaluated by fluorescence microscopy. […] the cells and incubated for 6 h. […] All shown microscopy images are representative of at least two independent experiments. […] Resazurin based cell viability assay of HEK293 and HEK293_CMKLR1-eYFP cells after 72 h incubation with the p53/MDM2 inhibitor Nutlin-3a. […] 100 50 2Cy 3Cy 4Cy 0 -8 -7 -6 -5 -4 […]], log Figure S4. Resazurin based cell viability assay of HEK293_CMKLR1-eYFP cells after 72 h incubation with the PMIγ peptides discussed in this work. Mean ± SEM from two independent experiments performed in triplicates. 15 […]

p53/MDM2 interaction = target: T3, p53/MDM2 interaction (Homo sapiens, UniProt Q00987); assay: Inhibition of intracellular p53-HaloTag/NanoLuc-MDM2 BRET; type: cell-based; settings: unlabeled peptides, 72 h
T3 construct: host or cells: HEK293 and HEK293_CMKLR1-eYFP
Description: Peptides were incubated on HEK293 and HEK293_CMKLR1-eYFP cells for 72 h, before BRET was measured. Nutlin-3a was incubated on HEK293 cells for 24 h before BRET was measured. Mean ± SEM from two independent experiments performed in duplicate. […]
dividing the Cy5-signal (670±30 nm) by the NanoLuc signal (450±20 nm). netBRET was calculated by subtracting the BRET ratio from cells which were incubated without peptide. To calculate the CMKLR1-specific effect, ΔBRET was calculated by subtracting the netBRET value obtained in cells without CMKLR1 from netBRET obtained in cells with CMKLR1. After the initial readout, a kinetic BRET displacement was performed with the same cells. For this, luminescence was measured every 22 s. After 3 min, 10 µM of the small molecule MDM2 antagonist Nutlin-3a (Sigma) was added to the cells and BRET was measured for another 7 min. Experiments were performed in technical duplicates and three independent times. […]
were then incubated with dilutions of unlabeled PMIγ -peptides for 72 h or with Nutlin-3a for 24 h. […] After 10 min incubation, luminescence was measured, and BRET ratio was calculated by dividing the TMR-signal (600±50 nm) by the NanoLuc signal (450±20 nm). netBRET was calculated and normalized to cells without peptide (100%) and cells which were not label ed with HaloTag TMR Ligand (0%). […]

[3] = read-out: pEC50 ± SEM (converted)

T3 sequence (Q00987 whole entry): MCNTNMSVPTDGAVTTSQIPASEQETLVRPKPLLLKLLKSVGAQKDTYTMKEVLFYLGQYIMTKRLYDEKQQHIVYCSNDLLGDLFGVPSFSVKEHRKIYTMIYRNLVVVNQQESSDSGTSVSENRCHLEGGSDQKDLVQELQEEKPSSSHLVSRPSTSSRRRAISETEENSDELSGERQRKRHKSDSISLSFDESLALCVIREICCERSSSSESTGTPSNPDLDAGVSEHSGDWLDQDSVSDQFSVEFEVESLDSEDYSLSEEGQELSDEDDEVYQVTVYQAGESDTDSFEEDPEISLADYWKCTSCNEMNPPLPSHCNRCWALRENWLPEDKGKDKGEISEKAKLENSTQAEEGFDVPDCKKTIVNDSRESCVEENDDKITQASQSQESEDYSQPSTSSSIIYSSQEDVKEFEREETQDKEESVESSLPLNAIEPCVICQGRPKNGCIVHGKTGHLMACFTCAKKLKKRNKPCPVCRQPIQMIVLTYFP
T2 sequence (Q00987 whole entry): as above

CC(=O)N[C@@H](CCCCN=[N+]=[N-])C(=O)N[C@@H](Cc1ccc(O)cc1)C(=O)N[C@@H](Cc1ccccc1)C(=O)N1CCC[C@H]1C(=O)N[C@@H]1CCSSC[C@@H](C(=O)O)NC(=O)[C@H](Cc2ccccc2)NC(=O)[C@H](C)NC(=O)[C@H](Cc2ccccc2)NC(=O)[C@H](CCC(N)=O)NC1=O [compound 1] (Ac-[Lys(N3)]YFP[d(hCys)]QFAFC-OH; disulfide 5-10)
EC50 (CMKLR1; [3]): 3.47 nM

C#CC[C@H](NC(=O)CCOCCOCCOCCNC(=O)[C@H](CCCNC(N)=O)NC(=O)[C@@H](NC(=O)[C@H](CCC(=O)O)NC(=O)CNC(=O)[C@@H](CCCNC(=N)N)NC(=O)[C@@H](CC(C)C)NC(=O)[C@@H](CC(C)C)NC(=O)[C@@H](C)NC(=O)[C@@H](CCC(=O)O)NC(=O)[C@@H](Cc1ccccc1)NC(=O)[C@@H](C)NC(=O)[C@@H](CC(C)C)NC(=O)[C@H]1CCCN1C(=O)[C@@H](Cc1c[nH]c2ccccc12)NC(=O)[C@@H](Cc1c[nH]c2ccccc12)NC(=O)[C@@H](CC(=O)O)NC(=O)CCOCCOCCOCCNC(=O)[C@@H](CCCNC(=N)N)NC(=O)[C@@H](CCCNC(=N)N)NC(=O)[C@@H](CCCNC(=N)N)NC(=O)[C@@H](CCCNC(=N)N)NC(=O)[C@@H](CCCNC(=N)N)NC(=O)[C@@H](CCCNC(=N)N)NC(=O)[C@@H](CCCNC(=N)N)NC(=O)[C@@H](CCCNC(=N)N)NC(=O)[C@@H](CCCNC(=N)N)NC(=O)CCOCCOCCOCCNC(=O)CCCCC[N+]1=C(C=CC=CC=C2N(C)c3ccc(S(=O)(=O)O)cc3C2(C)C)C(C)(C)c2cc(S(=O)(=O)[O-])ccc21)C(C)C)C(N)=O [4Cy]
Kd [1]: 57.1 ± 21.8 nM

sulfo-cyanine5 [sulfo-Cy5]
D in solution, reference [2]: 341.6 µm2/s

I: GSVSHHHHHHGGHHHH[PEG3][dD][dW][dW][dP][dL][dA][dF][dE][dA][dL][dL][dR]GEV[Cit][PEG3][Pra]-NH2 / II: Ac-[Lys(N3)]YFP[d(hCys)]QFAFC (triazole I:35-II:1; disulfide II:5-II:10) [compound 3]
EC50 (CMKLR1; read-out: EC50): 70.6 nM | EC50 (CMKLR1; [3]): 70.8 nM | cytotoxicity (HEK293_CMKLR1-eYFP cells): tolerated slightly worse at concentrations above 1 μM

CC(=O)N[C@@H](CCCCn1cc(C[C@H](NC(=O)CCOCCOCCOCCNC(=O)[C@H](CCCNC(N)=O)NC(=O)[C@@H](NC(=O)[C@H](CCC(=O)O)NC(=O)CNC(=O)CNC(=O)[C@@H](CCCNC(=N)N)NC(=O)[C@@H](CC(C)C)NC(=O)[C@@H](CC(C)C)NC(=O)[C@@H](C)NC(=O)[C@@H](CCC(=O)O)NC(=O)[C@@H](Cc2ccccc2)NC(=O)[C@@H](C)NC(=O)[C@@H](CC(C)C)NC(=O)[C@H]2CCCN2C(=O)[C@@H](Cc2c[nH]c3ccccc23)NC(=O)[C@@H](Cc2c[nH]c3ccccc23)NC(=O)[C@H](N)CC(=O)O)C(C)C)C(N)=O)nn1)C(=O)N[C@@H](Cc1ccc(O)cc1)C(=O)N[C@@H](Cc1ccccc1)C(=O)N1CCC[C@H]1C(=O)N[C@@H]1CCSSC[C@@H](C(=O)O)NC(=O)[C@H](Cc2ccccc2)NC(=O)[C@H](C)NC(=O)[C@H](Cc2ccccc2)NC(=O)[C@H](CCC(N)=O)NC1=O [compound 2] (I: H-[dD][dW][dW][dP][dL][dA][dF][dE][dA][dL][dL][dR]GGEV[Cit][PEG3][Pra]-NH2 / II: Ac-[Lys(N3)]YFP[d(hCys)]QFAFC-OH; triazole I:19-II:1; disulfide II:5-II:10; N-terminus assumed)
cytotoxicity (HEK293_CMKLR1-eYFP cells): no signs of cytotoxicity | extent of competition of the p53/MDM2 interaction (p53/MDM2 interaction): neither achieved full competition | displacement of NanoLuc-MDM2/p53-HaloTag BRET (p53/MDM2 interaction; HEK293 versus HEK293_CMKLR1-eYFP): CMKLR1-selective effects at extracellular concentrations above 1 μM
